Results on eight compounds are retold here after ChEMBL document CHEMBL1287753, “Synthesis of all-cis 2,5-imino-2,5-dideoxy-fucitol and its evaluation as a potent fucosidase and galactosidase inhibitor” (Bioorg Med Chem Lett, 2010).

What is called Ki is a measure of affinity in units of concentration, obtained from inhibition or displacement. In general, IC50 refers to the concentration that inhibits the measured activity by half. High values mean lower potency, low ones higher potency.

A short description of experiment [1]: Inhibition of alpha-fucosidase.
Experiment [2] in a line: Inhibition of beta-glucosidase.
Experiment [3] is described as follows: Inhibition of alpha-mannosidase.
Experiment [4] in a line: Inhibition of alpha-glucosidase.
Experiment [5] in a line: Inhibition of alpha-galactosidase.
A short description of experiment [6]: Inhibition of beta-galactosidase.
Experiment [7] is described as follows: Inhibition of beta-mannosidase.

Consider `C[C@@H]1N[C@H](CO)[C@H](O)[C@@H]1O`, for which the Ki in experiment [1] (read-out: Ki) was found to be 0.0049 µM.
As to `C[C@H]1N[C@H](CO)[C@@H](O)[C@H]1O`, the results for the IC50 in experiment [2] and in experiment [5] were 100 µM and 2000 µM, respectively. The Ki is 1000 µM in experiment [1] (read-out: Ki), “Not Active” in experiment [3] and “Not Active” in experiment [4].
For `C[C@@H]1N[C@@H](CO)[C@H](O)[C@@H]1O`, the Ki in experiment [1] (read-out: Ki) was 0.08 µM.
On to `C[C@@H]1N[C@@H](CCO)[C@H](O)[C@@H]1O`, for which the concentration for half-maximal inhibition (IC50) in experiment [2] was greater than 1000 µM; in experiment [3], greater than 1000 µM; in experiment [4], greater than 100 µM; in experiment [6], greater than 1000 µM; in experiment [5], greater than 1000 µM; in experiment [7], greater than 1000 µM. The Ki in experiment [1] (read-out: Ki) was determined as 0.008 µM.
Take `C[C@H]1N[C@H](CO)[C@H](O)[C@@H]1O`: the IC50 in experiment [2] is 1200 µM. The Ki in experiment [1] (read-out: Ki) was 9 µM; in experiment [3] (read-out: Ki), 53 µM; in experiment [4], “Not Active”; in experiment [5], 5 µM.
`OC[C@H]1NC[C@@H](O)[C@H]1O`: the IC50 in experiment [2] is 350 µM; in experiment [3], 14 µM; in experiment [6], 140 µM; in experiment [5] it was 0.2 µM. Moreover, the Ki result in experiment [1] and in experiment [4] was “Not Active” each time.
Take `C[C@@H]1NC[C@H](O)[C@@H]1O`: in experiment [1] (read-out: Ki), the Ki came to 0.05 µM.
As to `C[C@H]1N[C@@H](CO)[C@@H](O)[C@H]1O` (racemic), the half-inhibitory concentration (IC50) in experiment [2] is greater than 1 µM; in experiment [3], greater than 1000 µM; in experiment [4], greater than 100 µM; in experiment [7], greater than 1000 µM. Besides, the Ki in experiment [1] (read-out: Ki) was determined as 0.015 µM; in experiment [6], 53 µM; in experiment [5], 3 µM.
